Assay results reported in US10945931B2, “Shaping keratin fibres using dialdehyde compounds” (The Procter & Gamble Company, priority 2015, dated 2021).

Test: Hair straightening efficacy on hair switches, expert grading after wash-and-dry cycles
Conditions: 10% treatment, QSP water buffered at pH 10; flat iron 232° C., 8 passes; after 10 wash cycles; 0-10 scale (0 curly, 10 very straight)
Description: The hair straightening efficacy is tested for the crosslinking compositions described herein. Switches of low lift naturally curly hair are employed. These are shampooed with a Pantene clarifying shampoo to ensure the hair is in a clean state with no residues that could affect the end result. The switches are then rinsed. Excess water is removed from the hair by wringing out the switches. The switches are treated with a crosslinking composition; QSP water buffered at pH 10. These ingredients are mixed on a spinner plate for 30 mins. 0.5 g of crosslinking composition per 1 g hair is employed. The crosslinking composition is left on the hair for 30 minutes. After this time, the hair is blow dried and brushed. The switches are then mechanically straightened with a flat iron (at 450° F. [232° C.] with 8 passes.
The switches are then imaged. To simulate durability, the switches are then given one wash-and-dry cycle. One wash-and-dry cycle involves shampooing with a Hairtrition shampoo (Hairtrition Color Protect sulfate-free shampoo from Zotos), rinsing and then drying in a hot box. Once dry the switches are imaged again. The switches are then given 9 further wash-and-dry cycles. Once dry the switches are imaged again. An expert grader gives the images of the switches a score on a 0-10 scale. The scale is a standard scale set as curly hair having 4-5 nodes of curls is a score of 0 and very straight hair is a 10. Thus, the switches are compared to a normal state of hair. Using an expert grader is reliable because the grader is trained on measuring/scaling the configuration of the hair from straight to curly in a consistent way. Numeric data obtained by this method is averaged, and statistical analysis is conducted using JMP statistical software available from the SAS Institute at the […] confidence level. […] However, given similar straightening efficacy the dialdehyde compounds described herein have advantages over glutaraldehyde due to the lower cost of materials and increased safety profile.

Row | SMILES | Straightening efficacy Mean grade
1 | O=CCCCC=O [Glutaraldehyde, glutaraldehyde] | 5.00
2 | O=CC(O)CO (stereo not drawn) [Glyceraldehyde] | 2.67
3 | O=CC(O)C(O)C(O)C=O (stereo not drawn) [Pentodialdose, pentodialdose] | 5.33
